In patent US20260000763A1, “Methods of Manufacturing Therapeutic Cells” (The Board of Trustees of the Leland Stanford Junior …, priority 2022, published 2026):

Tests used:
Nalm6 tumor line = experiment: Co-culture of CD19.28 CAR T cells with Nalm6: IncuCyte killing and cytokine ELISA; assay type: cell-based
Experimental: In this example, CD19.28 CAR T cells were cultured in regular complete RPMI media until day 4, and then the cells were split between 11 mM glucose-(CTR) or 11 mM inosine-(INO) containing media (unless stated otherwise). A: Annexin 5 staining was performed at day 17 post-activation. Representative histograms of n=3 donors are shown. B: Surface CD19.28 CAR expression at day 14 post-activation. C: MFI of CAR molecules on CD19.28z CAR T cell surface at day 14 post activation. D: Ratio of CD4+vs CD8+CD19.28 CAR T cells at day 14 post-activation. E: CD19.28z CAR T cells were co-cultured with cells of the Nalm6 tumor line (1:8 E: T) for 75 hrs in an IncuCyte assay. […] Representative donor of n=3 is shown. F: Control media was replaced by INO+ media at the indicated day post activation. At day 14, cells were stimulated with Nalm6 tumor line, and IL-2 and IFNγ secretion was assessed by ELISA. […] For A and B, P values were determined by paired two-tailed t-tests. […] For F and G, P values were determined by unpaired two-tailed t-tests.
In this example, CD19.28 CAR T cells were generated using a retroviral vector and at day 4 post-activation, the cells were split between 11 mM glucose-(CTR) or 11 mM inosine-(INO) containing media (unless stated otherwise). Tested first was whether the absence of glucose in the culture media has a negative effect on the viability of CAR T cells.
Tumor antigen density is one of the most important factors affecting the efficacy of CAR T immunotherapy. Therefore, assessed next was whether growing CAR T cells in inosine-containing media improves their effector function against low antigen expressing tumor lines.

HA CAR T cells = experiment: Phenotype of tonically signaling (exhausted) HA CAR T cells expanded in inosine media (flow cytometry, CyTOF); assay type: cell-based, human; settings: for CD62L expression / frequency of central memory cells: CD8+ HA-CAR T cells, day 21, INO in presence or absence of glucose
Experimental: A: CD4+vs CD8+ ratio at day 14 post-activation. N-7 donors. P values were determined by paired two-tailed t-tests. […] C: IL-2 and IFNγ secretion at day 14 post-activation. P values were determined by unpaired two-tailed t-tests.
In this example, CAR T cells were cultured in control media until day 4 post activation, followed by continued expansion in regular or inosine-containing media. Phenotype of the cells was assessed by flow cytometry at day 21 post activation. A: Frequency of CD62L+ and CCR7+HA CAR+ T cells in 8 different donors. Representative histograms are shown. B: Relative frequency of central memory (CM), naïve, terminally differentiated (TEMRA) and effector memory (EM) HA CAR T cells. N=8 donors. C: Frequency of CD62L+ and CCR7+CD19.28 CAR+ T cells in 8 different donors. Representative histograms are shown. D: Relative frequency of central memory (CM), naïve, terminally differentiated (TEMRA) and effector memory (EM) CD19.28 CAR T cells. N=8 donors.
N=2-6 donors from independent experiments.
(Top) Dot plots of representative donor shown.
(§1) 9A: Schematic of the experimental design. […] Graphs represent median expression of indicated markers. […] Representative donor of n=2 donor shown. […] Data are mean+SD from triplicate wells. […] 9K: Schematic of the experimental design. […] Representative donor of n=3 donor shown. […] Representative donor of n=2 donor shown. […] (Top) Dot plots of representative donor shown. […] Representative donor of n=3 donor shown. […] N=2-4 donors from independent experiments. […] N=2-6 donors from independent experiments. […] N=2-4 donors from independent experiments. […] (Top) representative dot plots shown.
Transcriptomic and epigenetic hallmarks of exhaustion occur within 10-12 days in the HA-CAR model. To determine if INO can induce a stem-like phenotype in already exhausted T cells, HA-CAR T cells were exposed to INO on day: 4, 7, 10 and 14 post-activation, analyzing phenotype and function (FIG. 9K).
HA-CAR T cells were cultured from day 4 post-activation in control media containing glucose (11 mM), inosine only at 11 mM (INO), media containing both inosine and glucose at 11 mM or media without glucose or inosine.
To assess whether the observed increase in stemness and functionality is attributable to inosine addition or glucose deprivation, HA-CAR T cells were cultured from day 4 post-activation in control media containing 11 mM glucose (CTR), no glucose and no inosine (starvation condition), 11 mM inosine only (INO), or media containing both inosine and glucose (FIG. 7A). Proliferation was assessed at day 10.

Nalm6 leukemia cells = experiment: Nalm6 leukemia in NSG mice treated with CD19.28 CAR T cells (in vivo stress test); settings: 0.2×10^6 CD19.28 CAR T cells IV day 3, manufactured in inosine vs regular media
Experimental: A: NSG mice were injected IV with 1×10^6 Nalm6 leukemia cells at day 0, and then 0.2×10^6 CD19.28 CAR T cells, generated in regular or inosine-supplemented media were given IV on day 3. Tumor progression was monitored using bioluminescent imaging. Scales are normalized for all time points. Data are mean+s.e.m. of n=5 mice per group. […] B: NSG mice were injected IV with 1×10^6 Nalm6-GD2+ leukemia cells at day 0, and then 2×10^6 HA CAR T cells, generated in regular or inosine-containing media were given IV on day 3. Tumor progression was monitored using bioluminescent imaging. Scales are normalized for all time points. Data are mean+s.e.m. of n=5 mice per group. […] C: Overall survival. N=5 mice per group. Survival curves were compared using the log-rank Mantel-Cox test. D: NSG mice were injected intramuscular with 1×10^6 143b tumor cells. 4 days later the mice were injected with 1×10^7 Her2, Her2 grown in INO+ media or mock T cells IV. Tumor growth was monitored by caliper measurements. […] N=3-5 mice per group. Survival curves were compared using the log-rank Mantel-Cox test.
In this example, the in vivo anti-tumor potency of CAR T cells manufactured in the presence or absence of inosine was assessed. […] Three days post tumor injection, mice were evaluated and normalized for engraftment using bioluminescent imaging. […]

[1] = system: HA-CAR T cells and CD19.28z-CAR T cells; experiment: Cell cycle state by BrdU and 7AAD staining; assay type: cell-based; settings: day 10, vs control cells, presence or absence of glucose
Text: as §1
Further tested was whether similar functional enhancement occurred with INO exposure in the presence or absence of glucose by serially challenging HA-INO-CAR cells grown in the presence or absence of glucose with Nalm6-GD2. […] Decreased proliferation can be associated with induction of stemness or cells entering quiescence state.

[2] = day 21, inosine supplementation

O=c1[nH]cnc2c1ncn2[C@@H]1O[C@H](CO)[C@@H](O)[C@H]1O [inosine, Inosine]
tumor killing (Nalm6 tumor line; Nalm6, 1:8 E:T, 75 hrs IncuCyte, cells expanded in 11 mM inosine vs glucose): increased tumor killing | secretion of IFNγ (Nalm6 tumor line; Nalm6 expressing medium or low levels of surface CD19, day 14): significantly increased secretion | effector cytokine secretion (IL-2, IFNγ) (Nalm6 tumor line; stimulated with Nalm6 at day 14, ELISA): increased | CD62L expression (HA CAR T cells): significantly enhanced CD62L expression | frequency of central memory cells (HA CAR T cells): significantly enhanced | CD62L expression (HA CAR T cells; listed as INO): enhanced CD62L expression | frequency of central memory cells (HA CAR T cells; listed as INO): enhanced | frequency of CD8+ cells (HA CAR T cells; HA CAR T cells in INO+ media vs control, day 14): increased the frequency of CD8+ cells | expression of memory markers CD62L and CCR7 (HA CAR T cells; HA CAR T cells in INO+ media, day 21): higher expression | frequency of CD8+CD62L+ HA-CAR T cells (HA CAR T cells; INO added on day 4, 7, 10 or 14 post-activation, assessed day 21): increased frequency | frequency of terminally differentiated and effector cells (HA CAR T cells; [2]): decreased frequency | percentage of naïve and central memory HA CAR T cells (HA CAR T cells; [2]): elevated percentage | CD62L levels (HA CAR T cells; flow cytometry, CD8+ and CD4+ HA-CAR T cells, day 21): higher levels | tumor growth (bioluminescent imaging) (Nalm6 leukemia cells): significantly delayed tumor growth | cell cycle distribution [1]: higher proportion of cells in S/G2+M phase
